Source: ChEMBL document CHEMBL1158148, “Characterization of an irritant 4-deoxyphorbol diester from Euphorbia tirucalli” (J Nat Prod, 1979)

What was measured:
Mus musculus [1] = species: Mus musculus; assay: Toxicity against Swiss-Webster mouse assessed as irritation in ear per 5 ul after 4 hrs; assay type: organism-based; conditions: in vivo, topical_or_ocular
Mus musculus [2] = species: Mus musculus; assay: Toxicity against Swiss-Webster mouse assessed as irritation in ear per 5 ul after 24 hrs; assay type: organism-based; conditions: in vivo, topical_or_ocular

CC1=C[C@H]2[C@@]3(O)[C@H](C)[C@@H](OC(=O)c4ccccc4)[C@]4(OC(=O)c5ccccc5)[C@H]([C@@H]3C=C(CO)C[C@]2(O)C1=O)C4(C)C
ID50 (Mus musculus [1]): 0.6 µg
ID50 (Mus musculus [2]): 0.83 µg

CCC/C=C/C=C\C(=O)O[C@@H]1[C@@H](C)[C@]2(O)[C@@H]3C=C(C)C(=O)[C@@H]3CC(CO)=C[C@H]2[C@@H]2C(C)(C)[C@]12O
ID50 (Mus musculus [1]): > 100 µg
ID50 (Mus musculus [2]): > 100 µg

CCC/C=C/C=C\C(=O)O[C@@H]1[C@@H](C)[C@]2(O)[C@@H]3C=C(C)C(=O)[C@H]3CC(CO)=C[C@H]2[C@@H]2C(C)(C)[C@]12OC(C)=O
ID50 (Mus musculus [1]): 0.04 µg
ID50 (Mus musculus [2]): 0.07 µg

CCCCCCCCCCCCCC(=O)O[C@@H]1[C@@H](C)[C@@]2(O)[C@@H](C=C(CO)C[C@]3(O)C(=O)C(C)=C[C@@H]23)[C@@H]2C(C)(C)[C@]12OC(C)=O [PHORBOL MYRISTATE ACETATE]
ID50 (Mus musculus [1]): 0.04 µg
ID50 (Mus musculus [2]): 0.05 µg
